Results on 15 compounds are retold here after patent US8354431B2, “Aryl carboxylic acid cyclohexyl amide derivatives” (Novartis AG, priority 2007, dated 2013).

The target of one assay is T1, hCCR2b (Homo sapiens, UniProt P41597).
T1 construct: expressed in transfected cells; host or cells: CHO-dukX
T1 sequence (P41597 1-360 isoform P41597-2): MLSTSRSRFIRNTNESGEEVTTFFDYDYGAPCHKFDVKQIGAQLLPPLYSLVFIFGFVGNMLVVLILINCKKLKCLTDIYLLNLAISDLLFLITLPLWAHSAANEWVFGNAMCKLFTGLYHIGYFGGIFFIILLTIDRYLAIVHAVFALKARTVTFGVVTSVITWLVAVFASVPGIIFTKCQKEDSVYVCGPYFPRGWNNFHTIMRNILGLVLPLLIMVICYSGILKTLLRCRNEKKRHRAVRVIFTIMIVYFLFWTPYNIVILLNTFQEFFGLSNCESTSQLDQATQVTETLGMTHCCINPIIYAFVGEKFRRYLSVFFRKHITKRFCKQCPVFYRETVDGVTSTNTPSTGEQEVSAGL
Kind of assay: CCR2 membrane binding assay (SPA, [125I] MCP-1). The conditions noted are these: table does not name the assay; b437 says 'in these assays'. The protocol:
Transfected CHO-dukX cells stably expressing the hCCR2b gene are grown in MEM alpha medium to a confluency of between 70 and 80%. After discarding the medium, 30 ml ice-cold physiological buffer solution containing 1 mM EDTA are added and the cells removed from the plate using a scraper. The cell suspension is centrifuged at 800 g for 10′ at 4° C. and the cell pellet resuspended in buffer. Cell lysis is done using a Polytron PTI300D instrument at 28 000 RPM for 2 times 30 seconds on ice. Membranes are collected by centrifugation at 42 000 g for 20 minutes at 4° C. and subjected to a second round of lysis (Polytron, 28 000 RPM, 2×30 seconds on ice). Following centrifugation at 42 000 g for 20 minutes at 4° C. the membranes are resuspended in buffer at a protein concentration of 2 mg/ml and stored at −80° C. Ten millimolar stock solutions of test compounds in 100% DMSO are prepared. Test compounds are further diluted in buffer to yield the four-fold concentrated solutions for the tests that assayed a range of 10^−10 to 10^−5 M. The SPA assay is performed in a final volume of 200 μl per well in 96 well plates. The components are added per well in the following order: • 50 μl Buffer (+/−test compound) • 50 μl Wheat germ agglutinin-SPA beads (1.25 mg/well) in buffer • 50 μl CCR2B membrane suspension diluted with buffer to 0.04 mg/ml (2 μg/well), alternatively 50,000 cells per well • 50 μl [^125I] MCP-1 in buffer (60 pM final concentration, 2.5 μCi/plate)
After addition of all components the plate is sealed and incubated for 90 minutes at room temperature with constant shaking. Following incubation the plate is centrifuged at 1000 RPM in a Sorvall RC3B centrifuge for 4 minutes at room temperature and counted for 3 minutes per well in a TOP COUNT instrument (Packard). The quench-corrected counts are used for the analysis of radioligand binding.

A further assay deals with T2, Human CCR5 (Homo sapiens, UniProt P51681).
T2 construct: expressed in transfected cells; host or cells: CHO K1
As to the kind of experiment: CCR5 membrane binding assay ([I-125]MIP-1α). The conditions noted are these: table does not name the assay; b437 says 'in these assays'. The protocol:
Human CCR5 is used to generate stable transfectants in CHO K1 cells. Membranes prepared from these CCR5 transfectants are used in a radioligand binding assay using 125-1-MIP-1α as a ligand and the compounds of formula I are tested for inhibitory activity. The data are reported as IC50, i.e. the concentration of compound required to achieve 50% inhibition of [I-125]MIP-1α binding. In this assay, compounds of formula I have an IC50 between 0.004 and 10 μM.

What is called IC50 is the concentration needed to halve the response being measured. Low values mean greater potency, high ones weaker potency.

T2 sequence (P51681 whole entry): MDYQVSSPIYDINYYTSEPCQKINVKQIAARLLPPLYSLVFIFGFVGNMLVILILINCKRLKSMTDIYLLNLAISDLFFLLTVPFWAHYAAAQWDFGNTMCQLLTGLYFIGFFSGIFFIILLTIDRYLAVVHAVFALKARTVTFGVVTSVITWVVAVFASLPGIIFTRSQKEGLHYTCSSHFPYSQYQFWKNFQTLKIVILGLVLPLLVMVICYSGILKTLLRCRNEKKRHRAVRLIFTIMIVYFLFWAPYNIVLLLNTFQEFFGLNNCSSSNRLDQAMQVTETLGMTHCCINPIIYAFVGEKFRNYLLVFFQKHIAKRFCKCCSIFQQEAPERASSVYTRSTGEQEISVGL

Turning to `COCC(C)Oc1ccc2c(COc3cccc4[nH]c(C(=O)N[C@H]5CC[C@](O)(CCN6CC[C@H](O)[C@@H](C)C6)CC5)cc34)coc2c1` (mixture of isomers) [Example 17, 4-[6-((RS)-2-Methoxy-1-methyl-ethoxy)-benzofuran-3-ylmethoxy]-1H-indole-2-carboxylic acid {4-hydroxy-4-[2-((3S,4S)-4-hydroxy-3-methyl-piperidin-1-yl)-ethyl]-cyclohexyl}-amide], at hCCR2b, the IC50 amounted to 0.8 nM. That is a sub-nanomolar value.

With `C[C@H]1CN(CC[C@]2(O)CC[C@@H](NC(=O)c3cc4c(OCC5CCC5)cccc4[nH]3)CC2)CC[C@@H]1O` [Example 1, 4-Cyclobutylmethoxy-1H-indole-2-carboxylic acid {4-hydroxy-4-[2-((3S,4S)-4-hydroxy-3-methyl-piperidin-1-yl)-ethyl]-cyclohexyl}-amide], the IC50 stood at 12 nM at hCCR2b and 13.2 nM on Human CCR5.

In the case of `C[C@H]1CN(CC[C@]2(O)CC[C@@H](NC(=O)c3cc4c(OCc5ccoc5)cccc4[nH]3)CC2)CC[C@@H]1O` [Example 3, 4-(Furan-3-ylmethoxy)-1H-indole-2-carboxylic acid {4-hydroxy-4-[2-((3S,4S)-4-hydroxy-3-methyl-piperidin-1-yl)-ethyl]-cyclohexyl}-amide], at Human CCR5, the IC50 came to 13.8 nM. In other words, the double-digit nanomolar range.

With `C[C@H]1CN(CC[C@]2(O)CC[C@@H](NC(=O)c3cc4c(OCc5coc6c5C(=O)CCC6)cccc4[nH]3)CC2)CC[C@@H]1O` [Example 6, 4-(4-Oxo-4,5,6,7-tetrahydro-benzofuran-3-ylmethoxy)-1H-indole-2-carboxylic acid {4-hydroxy-4-[2-((3S,4S)-4-hydroxy-3-methyl-piperidin-1-yl)-ethyl]-cyclohexyl}-amide], the values for the IC50 on hCCR2b and on Human CCR5 were 24.3 nM and 27 nM, respectively.

For `C[C@H]1CN(CC[C@]2(O)CC[C@@H](NC(=O)c3cc4c(OCc5coc6c5C(=O)CC(C)(C)C6)cccc4[nH]3)CC2)CC[C@@H]1O` [Example 7, 4-(6,6-Dimethyl-4-oxo-4,5,6,7-tetrahydro-benzofuran-3-ylmethoxy)-1H-indole-2-carboxylic acid {4-hydroxy-4-[2-((3S,4S)-4-hydroxy-3-methyl-piperidin-1-yl)-ethyl]-cyclohexyl}-amide], the IC50 on hCCR2b worked out at 13.8 nM; on Human CCR5, 11.9 nM.

Turning to `C[C@H]1CN(CC[C@]2(O)CC[C@@H](NC(=O)c3cc4c(OC[C@@H]5COc6ccccc65)cccc4[nH]3)CC2)CC[C@@H]1O` [Example 8, 4-[(S)-1-(2,3-Dihydro-benzofuran-3-yl)methoxy]-1H-indole-2-carboxylic acid {4-hydroxy-4-[2-((3S,4S)-4-hydroxy-3-methyl-piperidin-1-yl)-ethyl]-cyclohexyl}-amide], the IC50 on hCCR2b was determined as 10.8 nM; on Human CCR5, 58.5 nM.

As to `COc1cccc2occ(COc3cccc4[nH]c(C(=O)N[C@H]5CC[C@](O)(CCN6CC[C@H](O)[C@@H](C)C6)CC5)cc34)c12` [Example 10, 4-(4-Methoxy-benzofuran-3-ylmethoxy)-1H-indole-2-carboxylic acid {4-hydroxy-4-[2-((3S,4S)-4-hydroxy-3-methyl-piperidin-1-yl)-ethyl]-cyclohexyl}-amide], the IC50 at hCCR2b is 1.5 nM; on Human CCR5 it was 10.6 nM.

As for `C[C@H]1CN(CC[C@]2(O)CC[C@@H](NC(=O)c3cc4c(OCc5coc6cc(F)cc(F)c56)cccc4[nH]3)CC2)CC[C@@H]1O` [Example 11, 4-(4,6-Difluoro-benzofuran-3-ylmethoxy)-1H-indole-2-carboxylic acid {4-hydroxy-4-[2-((3S,4S)-4-hydroxy-3-methyl-piperidin-1-yl)-ethyl]-cyclohexyl}-amide], on hCCR2b, the 50% inhibitory concentration (IC50) was 2.3 nM.

As to `C[C@H]1CN(CC[C@]2(O)CC[C@@H](NC(=O)c3cc4c(OCc5coc6ccc(Cl)cc56)cccc4[nH]3)CC2)CC[C@@H]1O` [Example 12, 4-(5-Chloro-benzofuran-3-ylmethoxy)-1H-indole-2-carboxylic acid {4-hydroxy-4-[2-((3S,4S)-4-hydroxy-3-methyl-piperidin-1-yl)-ethyl]-cyclohexyl}-amide], the IC50 at hCCR2b worked out at 0.2 nM; on Human CCR5, 0.5 nM.

Regarding `COc1ccc2c(COc3cccc4[nH]c(C(=O)N[C@H]5CC[C@](O)(CCN6CC[C@H](O)[C@@H](C)C6)CC5)cc34)coc2c1` [Example 13, 4-(6-Methoxy-benzofuran-3-ylmethoxy)-1H-indole-2-carboxylic acid {4-hydroxy-4-[2-((3S,4S)-4-hydroxy-3-methyl-piperidin-1-yl)-ethyl]-cyclohexyl}-amide], the 50% inhibitory concentration (IC50) is 2.7 nM on hCCR2b and 5.8 nM on Human CCR5.

Regarding `COCCCOc1ccc2c(COc3cccc4[nH]c(C(=O)N[C@H]5CC[C@](O)(CCN6CC[C@H](O)[C@@H](C)C6)CC5)cc34)coc2c1` [Example 19, 4-[6-(3-Methoxy-propoxy)-benzofuran-3-ylmethoxy]-1H-indole-2-carboxylic acid {4-hydroxy-4-[2-((3S,4S)-4-hydroxy-3-methyl-piperidin-1-yl)-ethyl]-cyclohexyl}-amide], the IC50 at hCCR2b was found to be 0.7 nM. In other words, the sub-nanomolar range.

Regarding `CCOCCCOc1ccc2c(COc3cccc4[nH]c(C(=O)N[C@H]5CC[C@](O)(CCN6CC[C@H](O)[C@@H](C)C6)CC5)cc34)coc2c1` [Example 20, 4-[6-(3-Ethoxy-propoxy)-benzofuran-3-ylmethoxy]-1H-indole-2-carboxylic acid {4-hydroxy-4-[2-((3S,4S)-4-hydroxy-3-methyl-piperidin-1-yl)-ethyl]-cyclohexyl}-amide], the IC50 on hCCR2b is 0.9 nM; at Human CCR5 it was 3.2 nM.

For the compound `C[C@H]1CN(CC[C@]2(O)CC[C@@H](NC(=O)c3cc4c(OCc5coc6cc(O[C@H]7CCOC7)ccc56)cccc4[nH]3)CC2)CC[C@@H]1O` [Example 21, 4-{6-[(S)-(Tetrahydro-furan-3-yl)oxy]-benzofuran-3-ylmethoxy}-1H-indole-2-carboxylic acid {4-hydroxy-4-[2-((3S,4S)-4-hydroxy-3-methyl-piperidin-1-yl)-ethyl]-cyclohexyl}-amideamide], the figures for the IC50 on hCCR2b and at Human CCR5 were 1.6 nM and 9 nM, respectively.

As for `C[C@H]1CN(CC[C@]2(O)CC[C@@H](NC(=O)c3cc4c(OCc5coc6cc(F)ccc56)cccc4[nH]3)CC2)CC[C@@H]1O` [Example 22, 4-(6-Fluoro-benzofuran-3-ylmethoxy)-1H-indole-2-carboxylic acid {4-hydroxy-4-[2-((3S,4S)-4-hydroxy-3-methyl-piperidin-1-yl)-ethyl]-cyclohexyl}-amide], the IC50 at hCCR2b was 7.4 nM.

For the compound `COc1cccc2c(COc3cccc4[nH]c(C(=O)N[C@H]5CC[C@](O)(CCN6CC[C@H](O)[C@@H](C)C6)CC5)cc34)coc12` [Example 23, 4-(7-Methoxy-benzofuran-3-ylmethoxy)-1H-indole-2-carboxylic acid {4-hydroxy-4-[2-((3S,4S)-4-hydroxy-3-methyl-piperidin-1-yl)-ethyl]-cyclohexyl}-amide], the values for the IC50 at hCCR2b and at Human CCR5 were 12.5 nM and 12.1 nM, respectively.
